# Reference: paper PMC6979384, “Characterization of the plant homeodomain (PHD) reader family for their histone tail interactions” (Epigenetics & Chromatin, 2020)
# Experiments:
# Test in all cases: Histone peptide microarray
# Assay type in all cases: binding, human
# TRIM66 (PB) = details: total n = 4; for Array Heatmap signal, TRIM66 (PB): sheet "Array Heatmap", GST-tagged reader, histone peptide array
# Summary of the method: (§1)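 A peptide microarray holding 293 synthetic histone peptides with individual or combinatorial modifications was probed with each GST-PHD protein at 0.5 μM. Values represent mean intensity (±SD) from four replicates.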
# RAG2 = details: total n = 4; for Array Heatmap signal, RAG2: sheet "Array Heatmap", GST-tagged reader, histone peptide array
# Summary of the method: as §1
# DIDO1 = details: total n = 4; for Array Heatmap signal, DIDO1: sheet "Array Heatmap", GST-tagged reader, histone peptide array
# Summary of the method: as §1
# AIRE (PP) = details: total n = 4; for Array Heatmap signal, AIRE (PP): sheet "Array Heatmap", GST-tagged reader, histone peptide array
# Summary of the method: as §1
# KDM4C (TTP) = details: total n = 4; for Array Heatmap signal, KDM4C (TTP): sheet "Array Heatmap", GST-tagged reader, histone peptide array
# Summary of the method: as §1
# PHRF1 (RP) = details: total n = 4; for Array Heatmap signal, PHRF1 (RP): sheet "Array Heatmap", GST-tagged reader, histone peptide array
# Summary of the method: as §1
# MLL5 = details: total n = 4; for Array Heatmap signal, MLL5: sheet "Array Heatmap", GST-tagged reader, histone peptide array
# Summary of the method: as §1
# KDM5B (1) = details: total n = 4; for Array Heatmap signal, KDM5B (1): sheet "Array Heatmap", GST-tagged reader, histone peptide array
# Summary of the method: as §1
# KDM7A = details: total n = 4; for Array Heatmap signal, KDM7A: sheet "Array Heatmap", GST-tagged reader, histone peptide array
# Summary of the method: as §1
# ING1 = details: total n = 4; for Array Heatmap signal, ING1: sheet "Array Heatmap", GST-tagged reader, histone peptide array
# Summary of the method: as §1
# CHD4 (PPCC) = details: total n = 4; for Array Heatmap signal, CHD4 (PPCC): sheet "Array Heatmap", GST-tagged reader, histone peptide array
# Summary of the method: as §1
# KDM5B (3) = details: total n = 4; for Array Heatmap signal, KDM5B (3): sheet "Array Heatmap", GST-tagged reader, histone peptide array
# Summary of the method: as §1
# MORC3 (CW) = details: total n = 4; for Array Heatmap signal, MORC3 (CW): sheet "Array Heatmap", GST-tagged reader, histone peptide array
# Summary of the method: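 GST-tagged PHD finger readers were expressed, purified and applied at 0.5 μM to a microarray of 293 synthetic histone peptides carrying single or combinatorial PTMs, using an optimized protocol. Binding signals are averages with standard deviation from 4 replicates.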
# ING2 = details: total n = 4; for Array Heatmap signal, ING2: sheet "Array Heatmap", GST-tagged reader, histone peptide array
# Summary of the method: as §1
# PHF13 = details: total n = 4; for Array Heatmap signal, PHF13: sheet "Array Heatmap", GST-tagged reader, histone peptide array
# Summary of the method: as §1
# CHD5 (PCC) = details: total n = 4; for Array Heatmap signal, CHD5 (PCC): sheet "Array Heatmap", GST-tagged reader, histone peptide array
# Summary of the method: as §1
# PHF21A = details: total n = 4; for Array Heatmap signal, PHF21A: sheet "Array Heatmap", GST-tagged reader, histone peptide array
# Summary of the method: as §1
# BAZ2B = details: total n = 4; for Array Heatmap signal, BAZ2B: sheet "Array Heatmap", GST-tagged reader, histone peptide array
# Summary of the method: as §1
# KDM5A (3) = details: total n = 4; for Array Heatmap signal, KDM5A (3): sheet "Array Heatmap", GST-tagged reader, histone peptide array
# Summary of the method: as §1
# TAF3 = details: total n = 4; for Array Heatmap signal, TAF3: sheet "Array Heatmap", GST-tagged reader, histone peptide array
# Summary of the method: as §1
# ING3 = details: total n = 4; for Array Heatmap signal, ING3: sheet "Array Heatmap", GST-tagged reader, histone peptide array
# Summary of the method: as §1
# PHF2 = details: total n = 4; for Array Heatmap signal, PHF2: sheet "Array Heatmap", GST-tagged reader, histone peptide array
# Summary of the method: as §1
# ING5 = details: total n = 4; for Array Heatmap signal, ING5: sheet "Array Heatmap", GST-tagged reader, histone peptide array
# Summary of the method: as §1
# CHD5 (PPCC) = details: total n = 4; for Array Heatmap signal, CHD5 (PPCC): sheet "Array Heatmap", GST-tagged reader, histone peptide array
# Summary of the method: as §1
# DPF2 (PPC2W2) = details: total n = 4; for Array Heatmap signal, DPF2 (PPC2W2): sheet "Array Heatmap", GST-tagged reader, histone peptide array
# Summary of the method: as §1
# BPTF (PB) = details: total n = 4; for Array Heatmap signal, BPTF (PB): sheet "Array Heatmap", GST-tagged reader, histone peptide array
# Summary of the method: as §1
# PHF8 = details: total n = 4; for Array Heatmap signal, PHF8: sheet "Array Heatmap", GST-tagged reader, histone peptide array
# Summary of the method: as §1
# SP140L = details: total n = 4; for Array Heatmap signal, SP140L: sheet "Array Heatmap", GST-tagged reader, histone peptide array
# Summary of the method: as §1
# ING4 = details: total n = 4; for Array Heatmap signal, ING4: sheet "Array Heatmap", GST-tagged reader, histone peptide array
# Summary of the method: as §1
# PHF23 = details: total n = 4; for Array Heatmap signal, PHF23: sheet "Array Heatmap", GST-tagged reader, histone peptide array
# Summary of the method: as §1
# KDM5A (1) = details: total n = 4; for Array Heatmap signal, KDM5A (1): sheet "Array Heatmap", GST-tagged reader, histone peptide array
# Summary of the method: as §1
substance,measurement,setting,value
H3K14ac + K18ac: H3 1-20,Array Heatmap signal (histone peptide microarray),"TRIM66 (PB); GST-tagged TRIM66 (PB = PHD + Bromodomain), sheet Array Heatmap, each array performed twice",0.934
same,Array Heatmap signal (histone peptide microarray),"RAG2; GST-tagged RAG2, sheet Array Heatmap, each array performed twice",0.2663
same,Array Heatmap signal (histone peptide microarray),"DIDO1; GST-tagged DIDO1, sheet Array Heatmap, each array performed twice",0.658
same,Array Heatmap signal (histone peptide microarray),"AIRE (PP); GST-tagged AIRE (PP), sheet Array Heatmap, each array performed twice",1
same,Array Heatmap signal (histone peptide microarray),"KDM4C (TTP); GST-tagged KDM4C (TTP = Tandem Tudor domain + PHD), sheet Array Heatmap, each array performed twice",0.5291
same,Array Heatmap signal (histone peptide microarray),"PHRF1 (RP); GST-tagged PHRF1 (RP), sheet Array Heatmap, each array performed twice",0.8706
same,Array Heatmap signal (histone peptide microarray),"MLL5; GST-tagged MLL5, sheet Array Heatmap, each array performed twice",0.5196
same,Array Heatmap signal (histone peptide microarray),"KDM5B (1); GST-tagged KDM5B (1), sheet Array Heatmap, each array performed twice",0.7675
same,Array Heatmap signal (histone peptide microarray),"KDM7A; GST-tagged KDM7A, sheet Array Heatmap, each array performed twice",0.4239
same,Array Heatmap signal (histone peptide microarray),"ING1; GST-tagged ING1, sheet Array Heatmap, each array performed twice",0.5141
same,Array Heatmap signal (histone peptide microarray),"CHD4 (PPCC); GST-tagged CHD4 (PPCC = Dual PHD + Dual Chromodomain), sheet Array Heatmap, each array performed twice",0.581
same,Array Heatmap signal (histone peptide microarray),"KDM5B (3); GST-tagged KDM5B (3), sheet Array Heatmap, each array performed twice",0.6502
same,Array Heatmap signal (histone peptide microarray),"MORC3 (CW); GST-tagged MORC3 (CW = CW-type Zn-finger), sheet Array Heatmap, each array performed twice",0.487
same,Array Heatmap signal (histone peptide microarray),"ING2; GST-tagged ING2, sheet Array Heatmap, each array performed twice",0.6014
same,Array Heatmap signal (histone peptide microarray),"PHF13; GST-tagged PHF13, sheet Array Heatmap, each array performed twice",0.5985
same,Array Heatmap signal (histone peptide microarray),"CHD5 (PCC); GST-tagged CHD5 (PCC = PHD + Dual Chromodomain), sheet Array Heatmap, each array performed twice",0.8723
same,Array Heatmap signal (histone peptide microarray),"PHF21A; GST-tagged PHF21A, sheet Array Heatmap, each array performed twice",0.5152
same,Array Heatmap signal (histone peptide microarray),"BAZ2B; GST-tagged BAZ2B, sheet Array Heatmap, each array performed twice",0.8123
same,Array Heatmap signal (histone peptide microarray),"KDM5A (3); GST-tagged KDM5A (3), sheet Array Heatmap, each array performed twice",0.6717
same,Array Heatmap signal (histone peptide microarray),"TAF3; GST-tagged TAF3, sheet Array Heatmap, each array performed twice",0.337
same,Array Heatmap signal (histone peptide microarray),"ING3; GST-tagged ING3, sheet Array Heatmap, each array performed twice",0.4502
same,Array Heatmap signal (histone peptide microarray),"PHF2; GST-tagged PHF2, sheet Array Heatmap, each array performed twice",0.4774
same,Array Heatmap signal (histone peptide microarray),"ING5; GST-tagged ING5, sheet Array Heatmap, each array performed twice",0.355
same,Array Heatmap signal (histone peptide microarray),"CHD5 (PPCC); GST-tagged CHD5 (PPCC = Dual PHD + Dual Chromodomain), sheet Array Heatmap, each array performed twice",0.5768
same,Array Heatmap signal (histone peptide microarray),"DPF2 (PPC2W2); GST-tagged DPF2 (PPC2W2 = Dual PHD + C2W2-type Zn-finger), sheet Array Heatmap, each array performed twice",0.9185
same,Array Heatmap signal (histone peptide microarray),"BPTF (PB); GST-tagged BPTF (PB = PHD + Bromodomain), sheet Array Heatmap, each array performed twice",0.357
same,Array Heatmap signal (histone peptide microarray),"PHF8; GST-tagged PHF8, sheet Array Heatmap, each array performed twice",0.3925
same,Array Heatmap signal (histone peptide microarray),"SP140L; GST-tagged SP140L, sheet Array Heatmap, each array performed twice",0.4262
same,Array Heatmap signal (histone peptide microarray),"ING4; GST-tagged ING4, sheet Array Heatmap, each array performed twice",0.4542
same,Array Heatmap signal (histone peptide microarray),"PHF23; GST-tagged PHF23, sheet Array Heatmap, each array performed twice",0.5075
same,Array Heatmap signal (histone peptide microarray),"KDM5A (1); GST-tagged KDM5A (1), sheet Array Heatmap, each array performed twice",0.555
H3K14me2: H3 1-20 [Peptide H3K14me2],"Array Heatmap signal, TRIM66 (PB)",TRIM66 (PB),0.6527
same,"Array Heatmap signal, RAG2",RAG2,0.2574
same,"Array Heatmap signal, DIDO1",DIDO1,0.7549
same,"Array Heatmap signal, AIRE (PP)",AIRE (PP),0.5905
same,"Array Heatmap signal, KDM4C (TTP)",KDM4C (TTP),0.5414
same,"Array Heatmap signal, PHRF1 (RP)",PHRF1 (RP),0.7403
same,"Array Heatmap signal, MLL5",MLL5,0.5639
same,"Array Heatmap signal, KDM5B (1)",KDM5B (1),0.6811
same,"Array Heatmap signal, KDM7A",KDM7A,0.4126
same,"Array Heatmap signal, ING1",ING1,0.5677
same,"Array Heatmap signal, CHD4 (PPCC)",CHD4 (PPCC),0.6389
same,"Array Heatmap signal, KDM5B (3)",KDM5B (3),0.5212
same,"Array Heatmap signal, MORC3 (CW)",MORC3 (CW),0.4726
same,"Array Heatmap signal, ING2",ING2,0.6018
same,"Array Heatmap signal, PHF13",PHF13,0.6476
same,"Array Heatmap signal, CHD5 (PCC)",CHD5 (PCC),0.8497
same,"Array Heatmap signal, PHF21A",PHF21A,0.4799
same,"Array Heatmap signal, BAZ2B",BAZ2B,0.5017
same,"Array Heatmap signal, KDM5A (3)",KDM5A (3),0.5469
same,"Array Heatmap signal, TAF3",TAF3,0.2982
same,"Array Heatmap signal, ING3",ING3,0.5043
same,"Array Heatmap signal, PHF2",PHF2,0.4838
same,"Array Heatmap signal, ING5",ING5,0.3792
same,"Array Heatmap signal, CHD5 (PPCC)",CHD5 (PPCC),0.5851
same,"Array Heatmap signal, DPF2 (PPC2W2)",DPF2 (PPC2W2),0.7618
same,"Array Heatmap signal, BPTF (PB)",BPTF (PB),0.3583
same,"Array Heatmap signal, PHF8",PHF8,0.3636
same,"Array Heatmap signal, SP140L",SP140L,0.3561
same,"Array Heatmap signal, ING4",ING4,0.4752
same,"Array Heatmap signal, PHF23",PHF23,0.5616
same,"Array Heatmap signal, KDM5A (1)",KDM5A (1),0.5072
H3K18ac (1-25): H3 1-25,"Array Heatmap signal, TRIM66 (PB)",TRIM66 (PB),0.788
same,"Array Heatmap signal, RAG2",RAG2,0.3351
same,"Array Heatmap signal, DIDO1",DIDO1,0.8263
same,"Array Heatmap signal, AIRE (PP)",AIRE (PP),0.502
same,"Array Heatmap signal, KDM4C (TTP)",KDM4C (TTP),0.575
same,"Array Heatmap signal, PHRF1 (RP)",PHRF1 (RP),0.8108
same,"Array Heatmap signal, MLL5",MLL5,0.6155
same,"Array Heatmap signal, KDM5B (1)",KDM5B (1),0.7576
same,"Array Heatmap signal, KDM7A",KDM7A,0.4088
same,"Array Heatmap signal, ING1",ING1,0.6071
same,"Array Heatmap signal, CHD4 (PPCC)",CHD4 (PPCC),0.699
same,"Array Heatmap signal, KDM5B (3)",KDM5B (3),0.5812
same,"Array Heatmap signal, MORC3 (CW)",MORC3 (CW),0.6771
same,"Array Heatmap signal, ING2",ING2,0.65
same,"Array Heatmap signal, PHF13",PHF13,0.7117
same,"Array Heatmap signal, CHD5 (PCC)",CHD5 (PCC),0.844
same,"Array Heatmap signal, PHF21A",PHF21A,0.5491
same,"Array Heatmap signal, BAZ2B",BAZ2B,0.5309
same,"Array Heatmap signal, KDM5A (3)",KDM5A (3),0.7204
same,"Array Heatmap signal, TAF3",TAF3,0.3651
same,"Array Heatmap signal, ING3",ING3,0.5765
same,"Array Heatmap signal, PHF2",PHF2,0.6849
same,"Array Heatmap signal, ING5",ING5,0.4305
same,"Array Heatmap signal, CHD5 (PPCC)",CHD5 (PPCC),0.6616
same,"Array Heatmap signal, DPF2 (PPC2W2)",DPF2 (PPC2W2),0.8287
same,"Array Heatmap signal, BPTF (PB)",BPTF (PB),0.4168
same,"Array Heatmap signal, PHF8",PHF8,0.4195
same,"Array Heatmap signal, SP140L",SP140L,0.3993
same,"Array Heatmap signal, ING4",ING4,0.5434
same,"Array Heatmap signal, PHF23",PHF23,0.5923
same,"Array Heatmap signal, KDM5A (1)",KDM5A (1),0.5632
